The results in this text go back to patent US6403606B1, “Thienopyridine derivatives and their use” (Takeda Chemical Industries Ltd., priority 1996, dated 2002).

The structures appear in SMILES notation. Marks after values point to notes of the source that are not given here.

Test system in the first data set: not given
Experiment: not given
Conditions: not given
`CCOC(=O)c1c(CN(CC)CC)nc2sc3c(c2c1-c1ccc(OC)c(OC)c1)CCN(C(=O)c1ccc(Cl)cc1)C3` [Example 2A, ethyl 7-(4-chlorobenzoyl)-2-(N,N-diethylaminomethyl)-4-(3,4-dimethoxyphenyl)-5,6,7,8-tetrahydrothieno[2,3-b:5,4-c′]dipyridine-3-carboxylate] yielded a melting point of 96 to 98 °C.

`CCOC(=O)c1c(CN(CC)CC)nc2sc3c(c2c1-c1ccc(OC)c(OC)c1)CCNC3` [Example 5A, ethyl 2-(N,N-diethylaminomethyl)-4-(3,4-dimethoxyphenyl)-5,6,7,8-tetrahydrothieno-[2,3-b:5,4-c′]dipyridine-3-carboxylate] came in with a melting point of 72 to 75 °C.

The compound `CCOC(=O)c1c(CCCn2cncn2)nc2sc3cnccc3c2c1-c1ccc(OC)c(OC)c1` [Example 29A, ethyl 4-(3,4-dimethoxyphenyl)-2-[3-(1,2,4-triazol-1-yl)propyl]thieno[2,3-b:5,4-c′]dipyridine-3-carboxylate] had a melting point of 127 to 129 °C.

In turn, `CCOC(=O)c1c(CCCCn2cncn2)nc2sc3cnccc3c2c1-c1ccc(OC)c(OC)c1` [Example 30A, ethyl 4-(3,4-dimethoxyphenyl)-2-[4-(1,2,4-triazol-1-yl)butyl]thieno[2,3-b:5,4-c′]dipyridine-3-carboxylate] registered a melting point of 118 to 119 °C.

Regarding `CCOC(=O)c1c2c(cn1CN(CC)CC)C1=C(NC(C(C)=O)CC1)[SH]2c1ccc(OC)c(OC)c1` (stereo not drawn) [Example 32A, ethyl 2-acetyl-8-(3,4-dimethoxyphenyl)-6-diethylaminomethyl-2,3-dihydro-1H-pyrrolo[3′,4′:4,5]thieno[2,3-b]pyridine-7-carboxylate], the melting point lay in the range of 123 to 124 °C.

For `COc1ccc(-c2c(Cl)c(COC3=NN(c4ccccc4)CC3)nc3sc4c(c23)CCN(Cc2ccccc2)C4)cc1OC` [Example 32B, 7-benzyl-3-chloro-4-(3,4-dimethoxyphenyl)-2-(1-phenyl-2-pyrazolin-3-yloxymethyl)-5,6,7,8-tetrahydrothieno[2,3-b:5,4-c′]dipyridine], the melting point fell in the range of 157 to 158 °C.

Turning to `CCOC(=O)c1c(CN(CC)CC)nc2sc3c(c2c1-c1ccc(CC)cc1)CCN(C(=O)Nc1ccccc1)C3` [Example 36A], the melting point lay in the range of 112 to 114 °C.

On to `COc1ccc(-c2c(Cl)c(CN3CCCC3=O)nc3sc4cnccc4c23)cc1OC` [Example 36B, 3-chloro-4-(3,4-dimethoxyphenyl)-2-(2-oxopyrrolidin-1-ylmethyl)thieno[2,3-b:5,4-c′]dipyridine], for which the melting point fell in the range of 228 to 230 °C.

As for `CCOC(=O)c1c(CN(CC)CC)nc2sc3c(c2c1-c1ccc(CC)cc1)CCN(OC(=O)CC)C3` [Example 39A], the melting point was in the range of 97 to 99 °C.

Turning to `CCOC(=O)c1c(CN(CC)CC)nc2sc3c(c2c1-c1ccc(CC)cc1)CCN(S(=O)(=O)c1ccccc1)C3` [Example 42A], the melting point was in the range of 140 to 141 °C.

`CCOC(=O)c1c(Cn2cncn2)nc2sc3cnccc3c2c1-c1ccc(OC)c(OC)c1` [Example 47A, ethyl 4-(3,4-dimethoxyphenyl)-2-(1,2,4-triazol-1-ylmethyl)thieno[2,3-b:5,4-c′]dipyridine-3-carboxylate] returned a melting point of 172 to 174 °C.

`CCOC(=O)c1c(CN(CC)CC)nc2sc3cnccc3c2c1-c1ccc(O)c(OC)c1` [Example 51A, ethyl 2-diethylaminomethyl-4-(4-hydroxy-3-methoxyphenyl)thieno[2,3-b:5,4-c′]dipyridine-3-carboxylate] yielded a melting point of 179 to 181 °C.

In the case of `CCOC(=O)c1c(CN2C(=O)CN(C)C2=O)nc2sc3c(c2c1-c1ccc(OC)c(OC)c1)CCN(C(=O)c1ccccc1)C3` [Example 52A, ethyl 7-benzoyl-4-(3,4-dimethoxyphenyl)-2-(1-methylhydantoin-3-ylmethyl)-5,6,7,8-tetrahydrothieno[2,3-b:5,4-c′]dipyridine-3-carboxylate], the melting point was in the range of 185 to 187 °C.

For the compound `CCOC(=O)c1c(CN(CC)CC)nc2sc3c(c2c1-c1ccc(OC)c(OC)c1)CN(C(=O)c1ccc(Cl)cc1)CC3` [Example 53A, ethyl 6-(4-chlorobenzoyl)-2-diethylaminomethyl-4-(3,4-dimethoxyphenyl)-5,6,7,8-tetrahydrothieno[2,3-b:4,5-c′]dipyridine-3-carboxylate], the melting point was in the range of 91 to 92 °C.

In turn, `CCOC(=O)c1c(CN(CC)CC)nc2sc3ccncc3c2c1-c1ccc(OC)c(OC)c1` [Example 55A, ethyl 2-diethylaminomethyl-4-(3,4-dimethoxyphenyl)thieno[2,3-b:4,5-c′]dipyridine-3-carboxylate] yielded a melting point of 141 to 142 °C.

As for `CCOC(=O)c1c(Cn2cncn2)nc2sc3c(c2c1-c1ccc(OC)c(OC)c1)CCCN3C(=O)OCc1ccccc1` [Example 56A, ethyl 8-benzyloxycarbonyl-4-(3,4-dimethoxyphenyl)-5,6,7,8-tetrahydro-2-(1,2,4-triazol-1-ylmethyl)thieno[2,3-b:5,4-b′]dipyridine-3-carboxylate], the melting point is 184 to 185 °C.

As to `CCOC(=O)c1c(CN(CC)CC)nc2sc3c(c2c1-c1ccc(OC)c(OC)c1)CCCN3C(=O)OCc1ccccc1` [Example 58A, ethyl 8-benzyloxycarbonyl-2-diethylaminomethyl-4-(3,4-dimethoxyphenyl)-5,6,7,8-tetrahydrothieno[2,3-b:5,4-b′]dipyridine-3-carboxylate], the melting point fell in the range of 138 to 139 °C.

As for `CCOC(=O)c1c(Cn2cncn2)nc2sc3c(c2c1-c1ccc(OC)c(OC)c1)CN(C(=O)OCc1ccccc1)CC3` [Example 59A, ethyl 6-benzyloxycarbonyl-4-(3,4-dimethoxyphenyl)-5,6,7,8-tetrahydro-2-(1,2,4-triazol-1-ylmethyl)thieno[2,3-b:4,5-c′]dipyridine-3-carboxylate], the melting point lay in the range of 169 to 170 °C.

`CCOC(=O)c1c(Cn2cncn2)nc2sc3c(c2c1-c1ccc(OC)c(OC)c1)CNCC3` [Example 63A, ethyl 4-(3,4-dimethoxyphenyl)-5,6,7,8-tetrahydro-2-(1,2,4-triazol-1-ylmethyl)thieno[2,3-b:4,5-c′]dipyridine-3-carboxylate] displayed a melting point of 180 to 181 °C.

With `CCOC(=O)c1c(CN(CC)CC)nc2sc3ncccc3c2c1-c1ccc(OC)c(OC)c1` [Example 64A, ethyl 2-diethylaminomethyl-4-(3,4-dimethoxyphenyl)thieno[2,3-b:5,4-b′]dipyridine-3-carboxylate], the melting point was in the range of 156 to 157 °C.

The compound `CCOC(=O)c1c(Cn2cncn2)nc2sc3ncccc3c2c1-c1ccc(OC)c(OC)c1` [Example 65A, ethyl 4-(3,4-dimethoxyphenyl)-2-(1,2,4-triazol-1-ylmethyl)thieno[2,3-b:5,4-b′]dipyridine-3-carboxylate] registered a melting point of 180 to 182 °C.

`CCOC(=O)c1c(Cn2cncn2)nc2sc3ccncc3c2c1-c1ccc(OC)c(OC)c1` [Example 66A, ethyl 4-(3,4-dimethoxyphenyl)-2-(1,2,4-triazol-1-ylmethyl)thieno[2,3-b:4,5-c′]dipyridine-3-carboxylate] returned a melting point of 166 to 167 °C.

The next data set deals with fetal rat bone culture (humeri, radii and ulnae). The data set is described as follows: Bone resorption inhibitory activity, 45Ca release from fetal rat bone culture (Test Example 2A). It is filed as cell-based, Sprague-Dawlay rat. The settings on record: 10 μM compound, 2 days culture; 45Ca release as % of control without compound (lower = more inhibition). The method, then:
The measurement of bone resorption inhibitory activity was carried out according to the method of Raisz [J. Clin. Invest., 44, 103-116 (1965)]. Namely, 50 μCi of ^45Ca (radioisotope of calcium in CaCl2 solution) was subcutaneously injected into a Sprague-Dawlay rat of 18th day of pregnancy. On the next day, the abdomen was opened and a fetal rat was taken out sterilely. The left and right humeri (radii and ulnae) were removed from the body under a dissection microscope and connective tissues and cartilages were removed as much as possible. Thus, bone culture samples were prepared. The bone was incubated in a medium (0.6 ml) of BCJb medium (Fitton-Jackson modification: GIBCO Laboratories, U.S.A.) containing 2 mg/ml of bovine serum albumin at 37° C. for 24 hours in an atmosphere of 5% of CO2 in air. The bones were cultured for an additional 2 days in the above medium containing a final concentration of 10 μM of the compound. The ratio (%) of ^45Ca released from the bone into the medium was calculated according to the following equation. [formula]
The bones from the same litter were cultured for 2 days the same manner without addition of the compound, and used as the control. The mean±standard deviation of the values for five bones of each group was calculated. The ratio (%) of this value to the control value was calculated. The results are shown in Table 2 (In the tables hereinafter, Ex. No. indicates Example No.).
As for `CCOC(=O)c1c(CN(CC)CC)nc2sc3c(c2c1-c1ccc(OC)c(OC)c1)CCN(C(=O)c1ccc(Cl)cc1)C3` [Example 2A, ethyl 7-(4-chlorobenzoyl)-2-(N,N-diethylaminomethyl)-4-(3,4-dimethoxyphenyl)-5,6,7,8-tetrahydrothieno[2,3-b:5,4-c′]dipyridine-3-carboxylate], the “Bone resorption inhibitory activity (^45Ca release) (% based on the control value)” value was 62** % based on the control value.

Consider `CCOC(=O)c1c(CN(CC)CC)nc2sc3c(c2c1-c1ccc(OC)c(OC)c1)CCNC3` [Example 5A, ethyl 2-(N,N-diethylaminomethyl)-4-(3,4-dimethoxyphenyl)-5,6,7,8-tetrahydrothieno-[2,3-b:5,4-c′]dipyridine-3-carboxylate], for which the “Bone resorption inhibitory activity (^45Ca release) (% based on the control value)” value is listed as 72* % based on the control value.

For a further data set, the system named is Rat Adjuvant Arthritis. As to the kind of experiment: Activity on rat adjuvant arthritis (Test Example 1A). It counts as in vivo, Male Lewis rats. The following applies: 6.25 mg/kg once daily for 14 days; day 14; relative to non-sensitized rats; N=6. The method, then: Male Lewis rats (7 weeks old, Clea Japan) were sensitized by intracutaneous injection of 0.05 ml of Freund's complete adjuvant (0.5% dead tubercle bacillus cell suspension in liquid paraffin) at the right hind paw. The test drug (6.25 mg/kg), in a suspension in 0.5% methyl cellulose, was administered once daily for 14 days starting just before sensitization (day 0). At the days 0 and 14, the left hind paw volume and body weight of the animals were measured using a plethysmometer (manufactured by Ugo Basile Company, Italy) and an electronic balance (EB-3200D, manufactured by Shimadzu Corporation, Japan), respectively, and paw swelling suppression rate (%) and body weight gain rate (%), relative to non-sensitized rats, were determined.
The results, expressed in mean±S.E. for each group (N=6), were compared and statistically analyzed by Dunnet method. Level of significance was set below 5%.
As to `CCOC(=O)c1c(CN(CC)CC)nc2sc3c(c2c1-c1ccc(OC)c(OC)c1)CCN(C(=O)c1ccccc1)C3` [Example 1A, ethyl 7-benzoyl-2-(N,N-diethylaminomethyl)-4-(3,4-dimethoxyphenyl)-5,6,7,8-tetrahydrothieno[2,3-b:5,4-c′]dipyridine-3-carboxylate], the “Body weight gain rate (%)” value was 15%.

On to `CCOC(=O)c1c(CN(CC)CC)nc2sc3cnccc3c2c1-c1ccc(OC)c(OC)c1` [Example 7A, ethyl 2-(N,N-diethylaminomethyl)-4-(3,4-dimethoxyphenyl)thieno[2,3-b:5,4-c′]dipyridine-3-carboxylate], for which the “Body weight gain rate (%)” value is on record as 26** %.

For the compound `CCOC(=O)c1c(CN(CC)CC)nc2sc3c(c2c1-c1ccc(OC)c(OC)c1)CCN(C(C)=O)C3` [Example 15A, ethyl 7-acetyl-2-(N,N-diethylaminomethyl)-4-(3,4-dimethoxyphenyl)-5,6,7,8-tetrahydrothieno[2,3-b:5,4-c′]dipyridine-3-carboxylate], the “Body weight gain rate (%)” value was 9%.

The data set is the same for the next values; noted with them: 6.25 mg/kg once daily for 14 days; left hind paw volume day 14; relative to non-sensitized rats; N=6.
Take `CCOC(=O)c1c(CN(CC)CC)nc2sc3c(c2c1-c1ccc(OC)c(OC)c1)CCN(C(=O)c1ccccc1)C3` [Example 1A, ethyl 7-benzoyl-2-(N,N-diethylaminomethyl)-4-(3,4-dimethoxyphenyl)-5,6,7,8-tetrahydrothieno[2,3-b:5,4-c′]dipyridine-3-carboxylate]: the “Edema inhibitory rate (%)” value is listed as 49%.

Consider `CCOC(=O)c1c(CN(CC)CC)nc2sc3cnccc3c2c1-c1ccc(OC)c(OC)c1` [Example 7A, ethyl 2-(N,N-diethylaminomethyl)-4-(3,4-dimethoxyphenyl)thieno[2,3-b:5,4-c′]dipyridine-3-carboxylate], for which the “Edema inhibitory rate (%)” value is recorded as 84** %.

For `CCOC(=O)c1c(CN(CC)CC)nc2sc3c(c2c1-c1ccc(OC)c(OC)c1)CCN(C(C)=O)C3` [Example 15A, ethyl 7-acetyl-2-(N,N-diethylaminomethyl)-4-(3,4-dimethoxyphenyl)-5,6,7,8-tetrahydrothieno[2,3-b:5,4-c′]dipyridine-3-carboxylate], the “Edema inhibitory rate (%)” value is 60** %.
